Results published in ChEMBL document CHEMBL1681673, “Anti-tumor pyrimidinylpiperazines bind to the prosurvival Bcl-2 protein family member Bcl-XL” (Bioorg Med Chem Lett, 2011).

test system: A549; test: Growth inhibition of human A549 cells after 24 hrs by SRB assay; format: functional; conditions: A549, 24 h

**Q.** Which GI50 does the source give for `CCc1cnc(N2CCN(Cc3cccc([N+](=O)[O-])c3)CC2)nc1` here?
**A.** The GI50 was 88 µM.

**Q.** How did the GI50 turn out when `CCc1cnc(N2CCN(Cc3cc([N+](=O)[O-])ccc3Cl)CC2)nc1` was run?
**A.** Its GI50 is 67.2 µM.

**Q.** How did the GI50 turn out when `CCc1cnc(N2CCN(Cc3ccccc3-c3cn[nH]c3)CC2)nc1` was run?
**A.** The GI50 was 51.4 µM.

**Q.** How did the GI50 turn out when `CCc1cnc(N2CCN(Cc3cc(F)ccc3-c3cn[nH]c3)CC2)nc1` was run?
**A.** The GI50 was 49.2 µM.

**Q.** `c1ccc(Cc2cnc(N3CCN(Cc4ccccc4)CC3)nc2)cc1` was tested. Which GI50 did it give?
**A.** Its GI50 is 49.6 µM.

**Q.** For `Brc1ccccc1CN1CCN(c2ncc(Cc3ccccc3)cn2)CC1`, which GI50 is on record?
**A.** Its GI50 is 86.5 µM.

**Q.** `Fc1ccc(Br)c(CN2CCN(c3ncc(Cc4ccccc4)cn3)CC2)c1` was tested. Which GI50 did it give?
**A.** The GI50 was over 100 µM.

**Q.** Which GI50 does the source give for `Oc1cccc(CN2CCN(c3ncc(Cc4ccccc4)cn3)CC2)c1` here?
**A.** Its GI50 is 51.1 µM.

**Q.** Which GI50 does the source give for `Oc1ccc(Br)c(CN2CCN(c3ncc(Cc4ccccc4)cn3)CC2)c1` here?
**A.** Its GI50 is 23.7 µM.

**Q.** For `O=[N+]([O-])c1cccc(CN2CCN(c3ncc(Cc4ccccc4)cn3)CC2)c1`, which GI50 is on record?
**A.** The GI50 was 61.2 µM.

**Q.** With `O=[N+]([O-])c1ccc(Cl)c(CN2CCN(c3ncc(Cc4ccccc4)cn3)CC2)c1` as the compound, how does the GI50 read?
**A.** Its GI50 is over 100 µM.

**Q.** With `c1ccc(Cc2cnc(N3CCN(Cc4ccccc4-c4cn[nH]c4)CC3)nc2)cc1` as the compound, how does the GI50 read?
**A.** The GI50 was 8.43 µM.

**Q.** How did the GI50 turn out when `Fc1ccc(-c2cn[nH]c2)c(CN2CCN(c3ncc(Cc4ccccc4)cn3)CC2)c1` was run?
**A.** Its GI50 is 9.91 µM.

**Q.** How did the GI50 turn out when `CCc1cnc(N2CCN(Cc3cccc(N)c3)CC2)nc1` was run?
**A.** Its GI50 is over 100 µM.

**Q.** Which GI50 does the source give for `CCc1cnc(N2CCN(Cc3cc(N)ccc3Cl)CC2)nc1` here?
**A.** Its GI50 is 62.9 µM.

**Q.** With `Nc1cccc(CN2CCN(c3ncc(Cc4ccccc4)cn3)CC2)c1` as the compound, how does the GI50 read?
**A.** Its GI50 is 75.4 µM.

**Q.** How did the GI50 turn out when `Nc1ccc(Cl)c(CN2CCN(c3ncc(Cc4ccccc4)cn3)CC2)c1` was run?
**A.** Its GI50 is 15.1 µM.

**Q.** With `CCc1cnc(N2CCN(Cc3cccc(O)c3)CC2)nc1` as the compound, how does the GI50 read?
**A.** The GI50 was over 100 µM.

**Q.** How did the GI50 turn out when `CCc1cnc(N2CCN(Cc3cc(O)ccc3Br)CC2)nc1` was run?
**A.** Its GI50 is 57.6 µM.

**Q.** For `CCc1cnc(N2CCN(Cc3cc(F)ccc3Br)CC2)nc1`, which GI50 is on record?
**A.** The GI50 was over 100 µM.

**Q.** Which GI50 does the source give for `CCc1cnc(N2CCN(Cc3ccccc3Br)CC2)nc1` here?
**A.** The GI50 was 70.9 µM.

**Q.** Which GI50 does the source give for `CCc1cnc(N2CCN(Cc3ccccc3)CC2)nc1` here?
**A.** The GI50 was over 100 µM.

biological target: Bcl-2-like protein 1 (Homo sapiens, UniProt Q07817); test: Binding affinity to Bcl-xL after 2 hrs by fluorescein-labeled Bak-BH3 peptide competition binding assay; conditions: not given
Sequence (Q07817 whole entry): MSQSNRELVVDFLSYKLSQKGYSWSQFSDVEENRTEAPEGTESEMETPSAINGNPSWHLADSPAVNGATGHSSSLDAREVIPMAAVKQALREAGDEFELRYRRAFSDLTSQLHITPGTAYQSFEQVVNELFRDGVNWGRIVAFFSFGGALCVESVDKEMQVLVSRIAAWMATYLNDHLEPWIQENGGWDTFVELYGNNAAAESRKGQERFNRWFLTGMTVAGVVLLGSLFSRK

**Q.** Which Ki does the source give for `Oc1cccc(CN2CCN(c3ncc(Cc4ccccc4)cn3)CC2)c1` here?
**A.** Its Ki is 0.52 µM.

**Q.** Which Ki does the source give for `c1ccc(Cc2cnc(N3CCN(Cc4ccccc4-c4cn[nH]c4)CC3)nc2)cc1` here?
**A.** Its Ki is 0.127 µM.

**Q.** How did the Ki turn out when `Nc1ccc(Cl)c(CN2CCN(c3ncc(Cc4ccccc4)cn3)CC2)c1` was run?
**A.** The Ki was 0.17 µM.
